- melting point: 203.8 to 205.7 °C
SMILES: CS(=O)(=O)Nc1ccc2c(c1)S(=O)(=O)N=C(C1=C(O)[C@@H]3C4CCC(CC4)[C@@H]3N(Cc3ccc(F)cc3)C1=O)N2

— patent US8815847B2, “[1,2,4]thiadiazine 1,1-dioxide compounds for lowering serum uric acid” (Anadys Pharmaceuticals, Inc., priority 2011, dated 2014)
